Experimental data as given in ChEMBL document CHEMBL1201862, “PubChem BioAssay data set” (2004).
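Five compound concentrations were applied to cells in 96-well plates for 48 hours; endpoints were derived by simple linear interpolation of the resulting dose-response curve. The concentration for 50% growth inhibition is given as GI50.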 Activity calls are given as the source filed them. No stated cut-off is given here; in the data, active = GI50 up to about 1.1 µM and inactive = higher.

Tests used:
Experiment in all cases: NCI tumour cell line growth inhibition, 48 h
[1] = system: MDA-MB-435
[2] = system: KM12
[3] = system: UACC-62
[4] = system: MOLT-4
[5] = system: PC-3
[6] = system: A498
[7] = system: K562
[8] = system: HL-60
[9] = system: SF-295
[10] = system: TK-10
[11] = system: Hs-578T
[12] = system: UACC-257
[13] = system: OVCAR-4
[14] = system: COLO 205
[15] = system: U-251
[16] = system: CCRF-CEM
[17] = system: SNB-19
[18] = system: EKVX
[19] = system: SK-MEL-5
[20] = system: SF-268

SMILES	GI50 [1]	GI50 [2]	GI50 [3]	GI50 [4]	GI50 [5]	GI50 [6]	GI50 [7]	GI50 [8]	GI50 [9]	GI50 [10]	GI50 [11]	GI50 [12]	GI50 [13]	GI50 [14]	GI50 [15]	GI50 [16]	GI50 [17]	GI50 [18]	GI50 [19]	GI50 [20]
COc1cc(C2c3cc4c(cc3OC(NNC(N)=S)C2C)OCO4)cc(OC)c1OC (stereo not given)	0.0425 µM (active)	0.343 µM (active)	0.318 µM (active)	0.374 µM (active)	0.302 µM (active)	0.191 µM (active)	0.242 µM (active)	0.165 µM (active)	0.231 µM (active)	5.12 µM (inactive)	0.406 µM (active)	1.93 µM (inactive)	41.3 µM (inactive)	0.277 µM (active)	0.362 µM (active)	0.244 µM (active)	0.471 µM (active)	22.5 µM (inactive)	0.269 µM (active)	3.33 µM (inactive)
CN1CCOC1(C)c1ccccc1 (stereo not given)	> 100 µM (inactive)	> 100 µM (inactive)	> 100 µM (inactive)	> 100 µM (inactive)	> 100 µM (inactive)	> 100 µM (inactive)	> 100 µM (inactive)	> 100 µM (inactive)	> 100 µM (inactive)	> 100 µM (inactive)	> 100 µM (inactive)	> 100 µM (inactive)	> 100 µM (inactive)	> 100 µM (inactive)	> 100 µM (inactive)	> 100 µM (inactive)	> 100 µM (inactive)	> 100 µM (inactive)	> 26.1 µM (inactive)	> 100 µM (inactive)
Cn1c2ccccc2n2c3ccccc3c3nnc(N)c-3c12	> 88.7 µM (inactive)	61.5 µM (inactive)	73.6 µM (inactive)	7.67 µM (inactive)	68.2 µM (inactive)	> 100 µM (inactive)	> 65.8 µM (inactive)	> 100 µM (inactive)	5.58 µM (inactive)	> 100 µM (inactive)	1.69 µM (inactive)	51.1 µM (inactive)	41 µM (inactive)	32.4 µM (inactive)	0.673 µM (active)	37.3 µM (inactive)	1.45 µM (inactive)	> 100 µM (inactive)	28.9 µM (inactive)	0.589 µM (active)
O=C1Nc2ccccc2/C1=C1/Nc2ccccc2/C1=N/OCCO	2.47 µM (inactive)	0.149 µM (active)	10.5 µM (inactive)	0.8 µM (active)	15.1 µM (inactive)	0.213 µM (active)	> 100 µM (inactive)	3.87 µM (inactive)	17.3 µM (inactive)	9.73 µM (inactive)	6.14 µM (inactive)	> 100 µM (inactive)	> 100 µM (inactive)	3.99 µM (inactive)	> 100 µM (inactive)	> 100 µM (inactive)	> 100 µM (inactive)	0.662 µM (active)	0.771 µM (active)	> 100 µM (inactive)
CCn1c(=N)sc2nc3ccccc3n2c1=O	> 100 µM (inactive)	> 100 µM (inactive)	> 100 µM (inactive)	> 100 µM (inactive)	> 100 µM (inactive)	> 100 µM (inactive)	> 100 µM (inactive)	> 100 µM (inactive)	> 100 µM (inactive)	> 100 µM (inactive)	> 100 µM (inactive)	> 100 µM (inactive)	> 100 µM (inactive)	> 100 µM (inactive)	> 100 µM (inactive)	90.8 µM (inactive)	> 100 µM (inactive)	> 100 µM (inactive)	> 100 µM (inactive)	> 100 µM (inactive)
O=C(NCCOC(=O)OCCNC(=O)NC1CCCCC1)NC1CCCCC1	> 100 µM (inactive)	> 100 µM (inactive)	> 100 µM (inactive)	> 100 µM (inactive)	> 100 µM (inactive)	> 100 µM (inactive)	> 100 µM (inactive)	> 100 µM (inactive)	> 100 µM (inactive)	> 100 µM (inactive)	> 100 µM (inactive)	> 100 µM (inactive)	91.6 µM (inactive)	> 100 µM (inactive)	> 100 µM (inactive)	> 100 µM (inactive)	> 100 µM (inactive)	> 100 µM (inactive)	> 100 µM (inactive)	> 100 µM (inactive)
